Experimental data: ChEMBL document CHEMBL1134448, “Design, synthesis, and proposed active site binding analysis of monocyclic 2-azetidinone inhibitors of prostate specific antigen” (J Med Chem, 2001)
pIC50: −log10 of the molar value.

Biological target: Prostate-specific antigen (KLK3) (Homo sapiens) (UniProt P07288)
Experiment: Inhibition of Prostate specific antigen PSA (Serine Protease)

Prostate-specific antigen (KLK3) (Homo sapiens), sequence (P07288 whole entry, looked up): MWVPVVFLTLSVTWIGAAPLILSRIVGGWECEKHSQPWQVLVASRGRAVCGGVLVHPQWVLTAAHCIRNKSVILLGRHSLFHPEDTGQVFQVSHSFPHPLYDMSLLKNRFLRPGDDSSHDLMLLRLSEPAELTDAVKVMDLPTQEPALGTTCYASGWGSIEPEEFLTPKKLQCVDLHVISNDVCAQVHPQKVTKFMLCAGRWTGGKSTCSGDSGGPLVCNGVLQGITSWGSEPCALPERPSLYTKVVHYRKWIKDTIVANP

Q: `O=C(OCc1ccccc1)c1cccc(CC(=O)N2C(=O)[C@@H](Cc3ccc(O)cc3)[C@H]2C(=O)OCc2ccccc2)c1` (stereo in doubt; (3S,4S)-18) was tested. Which pIC50 did it give?
A: 6.65

Q: `O=C(OCc1ccccc1)c1cccc(CC(=O)N2C(=O)[C@@H](Cc3ccccc3)[C@H]2C(=O)OCc2ccccc2)c1` was tested. Which pIC50 did it give?
A: 5.84

Q: With `O=C(O)c1ccc(COC(=O)[C@@H]2[C@H](Cc3ccc(O)cc3)C(=O)N2C(=O)Cc2cccc(C(=O)OCc3ccccc3)c2)cc1` as the compound, how does the pIC50 read?
A: 5.46

Q: With `O=C(O)c1ccc(COC(=O)c2cccc(CC(=O)N3C(=O)[C@@H](Cc4ccccc4)[C@H]3C(=O)OCc3ccc(C(=O)O)cc3)c2)cc1` as the compound, how does the pIC50 read?
A: 5.23

Q: With `O=C(OCc1ccccc1)c1cccc(CC(=O)N2C(=O)[C@@H](Cc3ccc(O)cc3)[C@H]2C(=O)OCc2ccccc2)c1` (stereo in doubt; 16) as the compound, how does the pIC50 read?
A: 6.46

Q: `O=C(O)c1ccc(COC(=O)[C@@H]2[C@H](Cc3ccccc3)C(=O)N2C(=O)Cc2cccc(C(=O)OCc3ccccc3)c2)cc1` was tested. Which pIC50 did it give?
A: 5.05
